Assay results: patent publication US20240156825A1, “USE OF SELECTIVE VEGFR2 AND FGFR1 INHIBITORS” (Fountain Therapeutics Inc., priority 2022, published 2024)
pIC50: −log10 of the molar value. Like-named read-outs stand apart in the source and are kept apart here.

What was measured:
VEGFR2 [1] = target: T1, VEGFR2 (Homo sapiens, UniProt P35968); conditions: relative IC50: reported IC50 toward VEGFR2 divided by next lowest reported IC50 to any gene target
Zmpste24−/− mice [2] = experiment: Mouse model of progeria: bone loss score of vertebrae and femur (H&E sections); format: in vivo; conditions: 50 mg/kg oral QD5 56 days, 15 weeks of age
Method: Zmpste24−/− mice were dosed with either 50 mg/kg Brivanib Alaninate for 56 days, 5 days on, 2 days off (QD5), or vehicle alone. The dose was administered via oral gavage as a suspension of 18% (w/v) PEG400 2% Tween-80 (w/v) in water . The vehicle alone was 18% (w/v) PEG400 2% (w/v) Tween-80 in water.
The mice were assessed for bone loss in the vertebrae and femur at 15 weeks of age. Bone loss was scored by a pathologist using H&E stained sections of vertebrae or femur samples by the following criteria:
The mice that are treated with a selective VEGFR2 inhibitor and a selective FGFR1 inhibitor are also assessed for bone loss in the vertebrae and femur. Bone loss is scored by a pathologist using the criteria in Example 2.

Zmpste24−/− mice [3] = experiment: Mouse model of progeria: body fat (Echo MRI), lean muscle, body weight, intrascapular brown fat; format: in vivo; conditions: for Body fat (Echo MRI) vs vehicle / Intrascapular brown fat mass (percent of body weight) vs vehicle: Brivanib alaninate 50, SU5402 25, Cediranib maleate 5, Regorafenib 10, infigratinib 5 mg/kg
Method: Zmpste24 mice, a progeria model mouse line, were dosed with either 50 mg/kg Brivanib alaninate for 56 days, 5 days on, 2 days off (QD5), or vehicle alone. The dose was administered via oral gavage as a suspension of 18% (w/v) PEG400 2% (w/v) Tween-80 in water . The vehicle alone was 18% (w/v) PEG400 2% (w/v) Tween-80 in water.
The body fat of the mice was measured by an Echo MRI throughout the treatment.
Samples of intrascapular brown adipose tissue from 15 week old mice treated with Brivanib Alaninate or vehicle for 56 days underwent Hematoxylin and Eosin (H&E) staining.
Zmpste24−/− mice, a progeria model mouse line, were dosed with either 25 mg/kg SU5402 for 56 days, 5 days on, 2 days off (QD5) or vehicle alone. The dose was administered via oral gavage as a suspension of 5% (w/v) DMSO 9% (w/v) PEG400 1% (w/v) Tween-80 in saline. The vehicle alone was 5% (w/v) DMSO 9% (w/v) PEG400 1% (w/v) Tween-80 in saline.
The body fat of the mice was measured by an Echo […]. Lean muscle and body weight were also measured.
The dose was administered via oral gavage as a suspension of 18% (w/v) PEG400 2% (w/v) Tween-80 in water . The vehicle alone was 18% (w/v) PEG400 2% (w/v) Tween-80 in water.
The body fat of the mice was measured by an Echo MRI. […] There was also no alteration of intrascapular brown adipose tissue mass (FIG. 5D).
The dose was administered via oral gavage as a suspension of 18% (w/v) PEG400 2% (w/v) Tween-80 in water. The vehicle alone was 18% (w/v) PEG400 2% (w/v) Tween-80 in water.
The body fat of the mice was measured by an Echo MM. […] There was also no alteration of intrascapular brown adipose tissue mass (FIG. 6D).
The body fat of the mice was measure by an Echo MRI. […] There was also no alteration of intrascapular brown adipose tissue mass (FIG. 7D). […]

VEGFR2 and FGFR1 = experiment: Selection of compounds that selectively inhibit both VEGFR2 and FGFR1 (average relative IC50); format: biochemical; conditions: average of VEGFR2 and FGFR1 relative IC50
FGFR1 = FGFR1 (Homo sapiens, UniProt P11362); conditions: relative IC50: reported IC50 toward FGFR1 divided by next lowest reported IC50 to any gene target
VEGFR2 [4] = target: T1, VEGFR2; conditions: read-out: VEGFR2 IC50_μM; reported IC50 to VEGFR2; cited from earlier work
[5] = test system: C57BL6 mice fed a high fat, high cholesterol, high fructose diet; experiment: Mouse model of diet induced fatty liver disease; format: in vivo; conditions: 28 days
any gene target = conditions: cited from earlier work
EPHX2 = target: T2, EPHX2 (Homo sapiens, UniProt P34913); conditions: cited from earlier work
T2 sequence (P34913 1-555): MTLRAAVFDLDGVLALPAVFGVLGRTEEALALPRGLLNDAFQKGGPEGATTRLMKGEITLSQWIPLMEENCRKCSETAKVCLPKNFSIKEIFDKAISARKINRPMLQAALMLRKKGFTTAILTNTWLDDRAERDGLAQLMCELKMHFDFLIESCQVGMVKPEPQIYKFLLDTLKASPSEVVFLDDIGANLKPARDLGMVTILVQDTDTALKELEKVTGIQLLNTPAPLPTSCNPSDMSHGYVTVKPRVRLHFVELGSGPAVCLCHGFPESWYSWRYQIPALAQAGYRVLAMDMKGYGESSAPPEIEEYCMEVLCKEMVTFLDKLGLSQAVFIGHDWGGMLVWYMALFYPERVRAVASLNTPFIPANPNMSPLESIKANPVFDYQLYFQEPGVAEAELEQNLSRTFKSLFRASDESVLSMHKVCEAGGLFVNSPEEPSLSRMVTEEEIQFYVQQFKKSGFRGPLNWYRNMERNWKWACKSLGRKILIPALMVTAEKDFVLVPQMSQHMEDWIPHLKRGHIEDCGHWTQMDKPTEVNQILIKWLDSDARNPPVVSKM

[6] = 50 mg/kg i.p. once a day, relative to standard diet
[7] = lowest reported IC50 to any gene target, read-out: min IC50
[8] = oral gavage QD5 for 56 days, SU5402 25, Cediranib maleate 5, Regorafenib 10, infigratinib 5 mg/kg

T1 sequence (P35968 20-1356, species assumed): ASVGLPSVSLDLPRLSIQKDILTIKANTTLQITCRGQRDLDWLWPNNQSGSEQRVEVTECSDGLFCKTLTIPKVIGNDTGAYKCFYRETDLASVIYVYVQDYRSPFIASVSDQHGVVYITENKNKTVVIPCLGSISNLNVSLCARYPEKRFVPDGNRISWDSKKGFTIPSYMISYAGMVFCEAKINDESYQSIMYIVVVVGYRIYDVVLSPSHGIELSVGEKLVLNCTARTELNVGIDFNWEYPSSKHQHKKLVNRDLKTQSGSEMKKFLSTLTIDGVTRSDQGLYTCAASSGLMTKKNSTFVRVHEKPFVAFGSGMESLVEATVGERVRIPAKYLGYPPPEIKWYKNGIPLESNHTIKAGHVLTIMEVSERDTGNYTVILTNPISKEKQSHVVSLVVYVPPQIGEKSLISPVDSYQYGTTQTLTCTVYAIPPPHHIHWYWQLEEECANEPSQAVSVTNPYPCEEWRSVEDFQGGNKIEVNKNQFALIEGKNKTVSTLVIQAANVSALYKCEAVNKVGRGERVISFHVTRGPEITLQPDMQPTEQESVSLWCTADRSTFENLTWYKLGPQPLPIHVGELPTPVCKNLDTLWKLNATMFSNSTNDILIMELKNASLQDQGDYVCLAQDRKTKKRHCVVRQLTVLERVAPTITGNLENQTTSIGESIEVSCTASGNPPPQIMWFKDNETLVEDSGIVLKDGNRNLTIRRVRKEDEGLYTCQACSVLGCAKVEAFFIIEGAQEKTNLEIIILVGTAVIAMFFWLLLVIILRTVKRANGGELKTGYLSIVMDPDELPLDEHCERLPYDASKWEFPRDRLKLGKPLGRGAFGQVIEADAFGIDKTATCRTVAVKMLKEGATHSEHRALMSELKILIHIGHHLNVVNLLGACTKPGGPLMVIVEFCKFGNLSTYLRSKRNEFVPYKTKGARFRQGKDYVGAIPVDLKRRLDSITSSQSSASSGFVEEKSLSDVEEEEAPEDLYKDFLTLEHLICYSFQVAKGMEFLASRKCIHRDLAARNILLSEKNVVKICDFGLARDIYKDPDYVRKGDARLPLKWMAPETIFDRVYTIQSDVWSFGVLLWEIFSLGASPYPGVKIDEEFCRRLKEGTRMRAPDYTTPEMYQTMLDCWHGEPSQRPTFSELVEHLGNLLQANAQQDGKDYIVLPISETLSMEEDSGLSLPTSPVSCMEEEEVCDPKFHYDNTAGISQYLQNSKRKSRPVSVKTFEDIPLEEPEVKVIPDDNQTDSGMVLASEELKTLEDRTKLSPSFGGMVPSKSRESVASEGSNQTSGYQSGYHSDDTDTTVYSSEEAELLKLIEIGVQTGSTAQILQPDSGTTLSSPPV
FGFR1, sequence (P11362 22-822, species assumed): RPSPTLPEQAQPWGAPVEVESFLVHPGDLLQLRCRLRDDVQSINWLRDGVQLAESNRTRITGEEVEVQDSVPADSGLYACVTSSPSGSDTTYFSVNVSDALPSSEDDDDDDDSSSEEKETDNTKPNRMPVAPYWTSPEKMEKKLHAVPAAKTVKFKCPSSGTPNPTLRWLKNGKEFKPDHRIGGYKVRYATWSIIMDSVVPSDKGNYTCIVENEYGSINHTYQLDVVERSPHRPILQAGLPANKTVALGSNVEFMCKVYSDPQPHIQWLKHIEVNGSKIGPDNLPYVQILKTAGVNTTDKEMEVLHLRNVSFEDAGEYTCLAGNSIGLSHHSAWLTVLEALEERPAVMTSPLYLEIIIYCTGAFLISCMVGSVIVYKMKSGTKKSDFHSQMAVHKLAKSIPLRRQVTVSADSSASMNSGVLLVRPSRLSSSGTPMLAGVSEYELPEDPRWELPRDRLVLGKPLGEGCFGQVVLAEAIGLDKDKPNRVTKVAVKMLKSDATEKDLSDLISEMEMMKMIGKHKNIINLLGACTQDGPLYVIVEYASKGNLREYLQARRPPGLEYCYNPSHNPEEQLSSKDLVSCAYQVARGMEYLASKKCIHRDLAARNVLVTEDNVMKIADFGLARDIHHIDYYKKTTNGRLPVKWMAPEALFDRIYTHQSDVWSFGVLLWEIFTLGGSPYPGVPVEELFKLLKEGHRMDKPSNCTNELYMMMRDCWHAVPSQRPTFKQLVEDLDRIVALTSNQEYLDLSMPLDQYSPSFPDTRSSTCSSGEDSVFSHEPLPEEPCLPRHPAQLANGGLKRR

Cc1cc2c(F)c(Oc3ncnn4cc(OC[C@@H](C)OC(=O)[C@@H](C)N)c(C)c34)ccc2[nH]1 [compound 11234052, Brivanib alaninate (Brivanib)]
VEGFR2, rIC50 (VEGFR2 [1]): 0.9 | Bone loss score, femur: most severe score in the group (Zmpste24−/− mice [2]): 0.5 (0.5 = less than 1%) | Bone loss score, vertebrae: most severe score in the group (Zmpste24−/− mice [2]): 4 (4 = 51-75%) | Bone loss scores vs vehicle (Zmpste24−/− mice [2]): lower bone loss scores | Share of mice with the most severe score, femur (Zmpste24−/− mice [2]): about 30% | Share of mice with the most severe score, vertebrae (Zmpste24−/− mice [2]): about 15% | Lipid content in intrascapular brown adipose tissue (H&E) (Zmpste24−/− mice [3]; 15 week old mice, 50 mg/kg for 56 days): increased lipid content | Body fat (Echo MRI) vs vehicle (Zmpste24−/− mice [3]; oral gavage QD5 for 56 days): increase in body mass starting at 6 weeks of age | Intrascapular brown fat mass (percent of body weight) vs vehicle (Zmpste24−/− mice [3]; oral gavage QD5 for 56 days): made up for more of the percent of the body weight | avg rIC50 (VEGFR2 and FGFR1): 1.0 | FGFR1, rIC50 (FGFR1): 1.1 | pIC50 (VEGFR2 [4]): 7.60 | Liver lipid content (H&E) vs vehicle ([5]; 25 mg/kg i.p. once a day): decreased liver lipid content | Size of adipocytes in the epididymal fat pad vs vehicle ([5]; 25 mg/kg i.p. once a day): decreased the size of adipocytes | Thickness of the abdominal subcutaneous adipose ([5]; 25 mg/kg i.p. once a day): increased in the thickness | Increase in blood urea nitrogen vs fatty liver diet + vehicle [5, 6]: less of an increase | Increase in body weight vs fatty liver diet + vehicle [5, 6]: less of an increase | Increase in liver mass vs fatty liver diet + vehicle [5, 6]: less of an increase | Increase in serum cholesterol vs fatty liver diet + vehicle [5, 6]: less of an increase | Increase in serum triglycerides vs fatty liver diet + vehicle [5, 6]: less of an increase | pIC50 (any gene target; [7]): 7.60 | pIC50 (any gene target; next lowest IC50 value to any gene target, read-out: Min IC50_μM): 7.55

CNC(=O)c1cc(Oc2ccc(NC(=O)Nc3ccc(Cl)c(C(F)(F)F)c3)c(F)c2)ccn1 [compound 11167602, Regorafenib]
VEGFR2, rIC50 (VEGFR2 [1]): 8.4 | Body fat (Echo MRI) vs vehicle (Zmpste24−/− mice [3]; oral gavage QD5 for 56 days): did not show an increase | Intrascapular brown fat mass (percent of body weight) vs vehicle (Zmpste24−/− mice [3]; oral gavage QD5 for 56 days): no alteration | Body weight vs vehicle (Zmpste24−/− mice [3]; [8]): did not show an increase | Lean muscle vs vehicle (Zmpste24−/− mice [3]; [8]): did not show an increase | avg rIC50 (VEGFR2 and FGFR1): 5.7 | FGFR1, rIC50 (FGFR1): 3.0 | pIC50 (EPHX2): > 8.52 | pIC50 (any gene target; [7]): 9.00
